Test results: patent US10085998B2, “Salts of potassium ATP channel openers and uses thereof” (Essentialis, Inc., priority 2006, dated 2018)
“Also recorded” adds a separate entry of the source.

Key:
[1] = Form conversion and degradation under thermal stress; details: 60° C.; for Form conversion and degradation under thermal stress (XRPD, DSC): closed, protected from light, 7 and 14 days; for Thermal stability of form: 7 days
Procedure: Studies were also conducted to evaluate the likelihood for conversion and degradation under thermal stress.

[2] = Slurry studies (inter-conversion of the solid form); details: for Slurry study: conversion of solid form: n-heptane, dichloromethane (CH2Cl2) and toluene, 7 and 14 days; for Slurries: conversion of solid form: 50/50 mixtures of Forms C, D and F in ethyl acetate, acetonitrile and isopropanol, room temperature
Procedure: Slurry experiments were performed on each form to determine propensity for conversion and to see if a unique form could be generated.

[3] = Moisture sorption analysis; type: physicochemical; details: for Moisture sorption: hygroscopicity: relative humidity scan; for XRPD pattern following the moisture sorption/desorption analysis: after moisture sorption experiment
Procedure: Moisture Sorption Analysis was performed with a Hiden IGAsorp Moisture Sorption Instrument. Samples were first dried at 0% relative humidity at 25° C. until an equilibrium weight was reached, or for a maximum of 4 hours. Samples were then subjected to an isothermal (25° C.) scan from 10-90% relative humidity in steps of 10%. The samples were allowed to equilibrate to an asymptotic weight at each point for a maximum of 4 hours. Following absorption, a desorption scan from 85% relative humidity (at 25° C.) was run in steps of −10%, again allowing a maximum of 4 hours for the samples to equilibrate. The resulting samples after desorption were dried at 80° C. for two hours and analyzed by XRPD.

CC1=Nc2ccc(Cl)cc2S(=O)(=O)[N-]1.C[N+](C)(C)CCO [Form A]
Form conversion and degradation under thermal stress (XRPD, DSC) [1]: Started to convert to Form
Slurry study: conversion of solid form [2]: conversion to Form B was observed after seven days; also recorded: Converted to Form B after
Moisture sorption: hygroscopicity ([3]; 25° C.): Hygroscopic - deliquesced
Water absorbed at 60% RH ([3]; 25° C.): 2.4 wt %
XRPD pattern following the moisture sorption/desorption analysis [3]: consistent with Form A

CC1=Nc2ccc(Cl)cc2S(=O)(=O)[N-]1.CC1=Nc2ccc(Cl)cc2S(=O)(=O)[N-]1.O.[K+].[K+] [Form D]
Thermal stability of form [1]: Stable (7 days)
Slurries: conversion of solid form [2]: conversion to Form D was observed in all solvents; also recorded: Converted to Form D
Moisture sorption: hygroscopicity ([3]; 25° C.): hygroscopic; also recorded: Hygroscopic -
XRPD pattern following the moisture sorption/desorption analysis [3]: consistent with Form D

C1COCCO1.CC1=Nc2ccc(Cl)cc2S(=O)(=O)[N-]1.CC1=Nc2ccc(Cl)cc2S(=O)(=O)[N-]1.[K+].[K+] [Form F]
Thermal stability of form [1]: Stable (7 days)
Slurries: conversion of solid form [2]: conversion to Form D was observed in all solvents; also recorded: Converted to Form D
Moisture sorption: hygroscopicity ([3]; 25° C.): hygroscopic
XRPD pattern following the moisture sorption/desorption analysis [3]: consistent with Form D

CC1=Nc2ccc(Cl)cc2S(=O)(=O)[N-]1.[Na+] [sodium salt of diazoxide]
Form conversion and degradation under thermal stress (XRPD, DSC) [1]: little propensity to change form or degrade
Slurry study: conversion of solid form [2]: no propensity of inter-conversion
Hysteresis upon desorption / hydrate formation ([3]; 25° C., desorption scan): possible hydrate formation
Moisture sorption: hygroscopicity ([3]; 25° C.): hygroscopic
Moisture sorption: hygroscopicity ([3]; 25° C., listed as Sodium diazoxide salt): deliquescent -
Water absorbed at 60% RH ([3]; 25° C.): 1.2 wt %
Water absorbed at 80% RH ([3]; 25° C., 80% RH): 6.6 wt %
